The text below walks through data of patent US6951729B1, “High throughput screening method for biological agents affecting fatty acid biosynthesis” (Affinium Pharmaceuticals, Inc., priority 1999, dated 2005).

In experiment [1] the test system is bacterial fatty acid biosynthesis. Particulars: cited from earlier work.
Experiment [2] deals with FabK. As to the kind of experiment: FabK activity assay, activation by monovalent cations. The format is biochemical, Streptococcus pneumoniae. Conditions: NH4+ at 100 mM. How it is done: FabK catalyses the reduction of enoyl-ACPs with the concommitant oxidation of NADH. Crotonoyl-ACP can be prepared as described below. The reduction of crotonoyl-ACP to butyryl-ACP can be monitored by following the change in absorbance at 340 nm as NADH is oxidised.
Assays were carried out in Costar 3696 half-area plates in a fmal assay volume of 150 μl on a Spectramax platereader. Substrates, NADH and crotonoyl ACP, were incubated with FabK enzyme in […] N-[2-acetamido]-2 iminodiacetic acid (ADA), pH 6.5, 100 mM NH4Cl, 4% glycerol at 30° C. and the reaction monitored at 340 nm. This assaying can also be performed using crotonyl CoA, NADPH or an NADH analogue as a substrate.

Experiment [3] has as its system FabH. Conditions: through formation of dead end inhibition complexes with enzyme.
The target of experiment [4] is FabH (Escherichia coli, UniProt P0A6R0). Conditions: Heath et al. 1996; cited from earlier work.
FabH (Escherichia coli, UniProt P0A6R0), sequence (P0A6R0 whole entry): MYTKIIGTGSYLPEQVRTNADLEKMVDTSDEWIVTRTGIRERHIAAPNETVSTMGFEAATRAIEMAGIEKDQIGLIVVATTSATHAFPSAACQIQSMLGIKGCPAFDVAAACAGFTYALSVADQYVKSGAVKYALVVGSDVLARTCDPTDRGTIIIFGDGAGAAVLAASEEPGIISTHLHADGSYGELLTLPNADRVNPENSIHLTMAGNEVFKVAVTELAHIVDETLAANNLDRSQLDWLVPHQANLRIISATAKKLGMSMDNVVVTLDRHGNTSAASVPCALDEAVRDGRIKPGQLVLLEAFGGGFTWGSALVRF
Experiment [5] deals with FabI (Escherichia coli, UniProt P0AEK4). Particulars: Heath et al. 1996; cited from earlier work.
FabI, sequence (P0AEK4 whole entry): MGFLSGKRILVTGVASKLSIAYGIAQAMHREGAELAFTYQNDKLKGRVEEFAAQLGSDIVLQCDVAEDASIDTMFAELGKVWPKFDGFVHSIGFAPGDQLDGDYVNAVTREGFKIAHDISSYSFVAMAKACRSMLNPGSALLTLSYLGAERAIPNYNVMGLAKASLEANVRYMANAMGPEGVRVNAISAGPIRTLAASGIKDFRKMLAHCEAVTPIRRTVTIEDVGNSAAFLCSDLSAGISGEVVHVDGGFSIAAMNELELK

As to `C/C=C/C/C=C/CCC(=O)[C@H]1O[C@H]1C(N)=O` [Cerulenin], in experiment [1], the “inhibition of bacterial fatty acid biosynthesis” value is reported as “potent inhibitors”.
Turning to `N` [NH4^+], the “activation of the FabK reaction over the reaction with no monovalent cations” value in experiment [2] was “about 300 fold”.
Regarding `C=C/C(C)=C/[C@@]1(C)SC(=O)C(C)=C1O` [thiolactomycin], the “inhibition of bacterial fatty acid biosynthesis” value in experiment [1] is listed as “potent inhibitors”.
Turning to Acetyl-ACP, in experiment [3], the “inhibition of FabH” value was “inhibitor of FabH”.
Turning to palmitoyl-ACP, in experiment [4], the “feedback inhibition of FabH” value is “feedback inhibition”. Further, in experiment [5], the “feedback inhibition of FabI” value is recorded as “feedback inhibition”.
